Assays:
Assay type in all cases: cell-based
[1] = test system: OVCAR8 MZ1-R cells; assay: CellTiter-Glo cell viability, OVCAR8 MZ1-R cells; conditions: escalating doses, 5 days; for sensitivity of MZ1-R cells relative to JQ1-R cells or parental cells: OVCAR8, inhibitor screen
[2] = biological target: T1, CDK9 (Homo sapiens, UniProt P50750); assay: Western blot of CDK9 protein levels, OVCAR8 Thal-R cells; conditions: Thal 500 nM or 2 μM kinase inhibitor, 4 hours
T1 construct: OVCAR8 cells were treated with escalating doses of Thal SNS 032 and CDK9 protein levels were determined by Western blot; endogenous in cells; host or cells: OVCAR8 parental and Thal-R cells
Method: OVCAR8 cells were treated with escalating doses of Thal SNS 032 and CDK9 protein levels were determined by Western blot (FIG. 15A). […] Thal-R inhibitor treated cell viabilities were normalized to DMSO treated Thal-R cells. […] OVCAR8 cells were treated with 100 nM Thal SNS 032, escalating doses of GSK529A or RAD001, or the combination of Thal SNS 032 and kinase inhibitors, for 5 days and cell viability was assessed by CellTiter-Glo (FIGS. 15F and 15G).

[3] = test system: OVCAR5 JQ1-R cells; assay: Growth curves, OVCAR5 JQ1-R cells
[4] = test system: OVCAR8 parental, MZ1-R or ARV-R; assay: 14-day colony formation assay, crystal violet staining; conditions: ARV-R or MZ1-R vs parental OVCAR8, 14-day
Method: Parental, JQ1-R or MZ1-R OVCAR8 cells were treated with escalating doses of MK2206 for 5 days and cell viability assessed by CellTiter-Glo. MZ1-R or JQ1-R inhibitor treated cell viabilities normalized to DMSO treated JQ1-R or MZ1-R cells, respectfully (FIG. 11J). […] Parental, JQ1-R or MZ1-R OVCAR8 cells were treated with escalating doses of LP-935509 for 5 days and cell viability assessed by CellTiter-Glo. MZ1-R or JQ1-R inhibitor treated cell viabilities normalized to DMSO treated JQ1-R or MZ1-R cells, respectfully (FIG. 11K). […] Long-term 14-day colony formation assay of OVCAR8 parental, MZ1-R or ARV-R were treated with escalating doses of GSK529A or DMSO. Colony formation was assessed by crystal violet staining (FIG. 11L).

[5] = test system: OVCAR8 MZ1-R cells; assay: Apoptosis by Western blot, OVCAR8 MZ1-R cells
[6] = test system: BET proteins (BRD2, BRD3, BRD4); assay: Western blot of BET proteins and BRD4 targets, OVCAR8 MZ1-R cells; conditions: for BET protein levels: Western blot
[7] = test system: BET proteins (BRD2, BRD4); assay: Western blot of BET proteins, KURAMOCHI, COV362 and OVCAR5 MZ1-R cells
[8] = test system: OVCAR8 ARV-R cells; assay: CellTiter-Glo cell viability, OVCAR8 ARV-R cells; conditions: escalating doses, 5 days
[9] = test system: KURAMOCHI, COV362 and OVCAR5 MZ1-R cells; assay: CellTiter-Glo cell viability, KURAMOCHI, COV362 and OVCAR5 MZ1-R cells; conditions: COV362 and OVCAR5, escalating doses, 5 days
[10] = test system: OVCAR8 Thal-R cells; assay: CellTiter-Glo cell viability, OVCAR8 Thal-R cells; conditions: OVCAR8, escalating doses, 5 days
Method: (§1) Chronic exposure of OVCAR8 cells to CDK9 PROTAC (Thal SNS 032) sensitized cells to RAD001 or GSK1904529A. […] Moreover, these studies show both BET PROTACs and CDK9 PROTACs elicit a similar dependency on MTOR signaling to promote drug resistance. […] OVCAR8 cells were treated with escalating doses of Thal SNS 032 and CDK9 protein levels were determined by Western blot (FIG. 15A). […] (FIG. 15B). […] Thal-R inhibitor treated cell viabilities were normalized to DMSO treated Thal-R cells. Combination therapies involving GSK529A or RAD001 and Thal SNS 032 improved growth repression of OVCAR8 cells. OVCAR8 cells were treated with 100 nM Thal SNS 032, escalating doses of GSK529A or RAD001, or the combination of Thal SNS 032 and kinase inhibitors, for 5 days and cell viability was assessed by CellTiter-Glo (FIGS. 15F and 15G).

[11] = test system: BRD2, BRD3 or BRD4 RNA; assay: qRT-PCR of BRD RNA levels, OVCAR8 MZ1-R cells; conditions: 1 μM, 48 hours
[12] = test system: BET proteins, FOSL1, MYC; assay: Western blot of BET proteins and BRD4 targets, JQ1-R cells
[13] = test system: INSR and downstream MTOR, AKT and MAPK signaling; assay: Kinase signaling in BBD-R cells (MIB-MS, phospho-blot); conditions: for phosphorylation of P70S6K (T359): BBD-R cells (MZ1-R, ARV-R), 4 hours
Method: Reduced MIB-binding of kinases involved in cell cycle (WEE1, CHEK1, CDK2, CDK6 and PLK1), as well as kinases required for translation (EIF2AK1, EIF2AK2, and EIF2AK4) were also observed following GSK529A treatment. […] Enrichment maps of pathways repressed by INSR inhibition generated from MIB-MS profiles of OVCAR8 cells treated with GSK529A (1 μM) treatment for 48 hours. Statistical differences in protein log 2 LFQ z-scores comparing GSK529A to control treated MZ1-R cells was determined by paired T-Test Benjamini- Hochberg adjusted p values at FDR of <0.05 using Perseus Software. […] Enrichment maps were generated in Cytoscape using the Enrichment Map app v2.2.1. (data not shown).

[14] = test system: BET proteins (BRD2, BRD3, BRD4); assay: Western blot of BET protein levels, OVCAR8 parental cells
[15] = biological target: T1, CDK9; assay: Western blot of CDK9 protein levels, OVCAR8 cells; conditions: escalating doses
Method: as §1

[16] = test system: BET proteins (BRD2, BRD3, BRD4); assay: Western blot of BET proteins, OVCAR8 ARV-R cells
[17] = test system: DLD-1 cells; assay: Spheroid assay, DLD-1 cells; conditions: 2 μM RAD001, 1 nM dBET6
Method: Data were analyzed as % cell viability of DMSO control, presented as means of 3 independent assays.

[18] = test system: KURAMOCHI cells; assay: Combination cell viability, KURAMOCHI cells, CellTiter-Glo; conditions: 100 nM, 5 days
From the text: The proposed model of the protection of BRD4 from PROTAC-degradation by MTOR signaling in ovarian cancer cells is shown in FIG. 7J. PROTAC-mediated degradation of BRD4 induces RTK signaling resulting in increased MTOR signaling which prevents the degradation of BRD4 in cells resistant to BET PROTACs.

[19] = test system: DLD-1 cells; assay: Cell-Titer Glo cell viability and drug synergy, DLD-1 cells
Method: Blockade of MTORC1 signaling sensitizes cancer cells resistant to BET-PROTACs. […] Data were analyzed as % cell viability of DMSO control, presented as means of 3 independent assays.

T1 sequence (P50750 whole entry): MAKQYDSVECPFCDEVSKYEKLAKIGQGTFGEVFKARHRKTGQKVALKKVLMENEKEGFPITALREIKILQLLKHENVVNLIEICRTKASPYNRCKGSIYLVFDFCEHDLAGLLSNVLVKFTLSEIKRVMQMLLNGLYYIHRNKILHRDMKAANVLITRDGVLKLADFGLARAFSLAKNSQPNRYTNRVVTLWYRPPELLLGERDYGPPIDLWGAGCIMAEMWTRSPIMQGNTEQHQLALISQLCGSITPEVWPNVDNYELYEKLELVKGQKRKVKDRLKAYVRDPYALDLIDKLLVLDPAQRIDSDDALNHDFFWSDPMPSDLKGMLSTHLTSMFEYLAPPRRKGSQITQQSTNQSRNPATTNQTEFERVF
T1 sequence (O60563 whole entry partner): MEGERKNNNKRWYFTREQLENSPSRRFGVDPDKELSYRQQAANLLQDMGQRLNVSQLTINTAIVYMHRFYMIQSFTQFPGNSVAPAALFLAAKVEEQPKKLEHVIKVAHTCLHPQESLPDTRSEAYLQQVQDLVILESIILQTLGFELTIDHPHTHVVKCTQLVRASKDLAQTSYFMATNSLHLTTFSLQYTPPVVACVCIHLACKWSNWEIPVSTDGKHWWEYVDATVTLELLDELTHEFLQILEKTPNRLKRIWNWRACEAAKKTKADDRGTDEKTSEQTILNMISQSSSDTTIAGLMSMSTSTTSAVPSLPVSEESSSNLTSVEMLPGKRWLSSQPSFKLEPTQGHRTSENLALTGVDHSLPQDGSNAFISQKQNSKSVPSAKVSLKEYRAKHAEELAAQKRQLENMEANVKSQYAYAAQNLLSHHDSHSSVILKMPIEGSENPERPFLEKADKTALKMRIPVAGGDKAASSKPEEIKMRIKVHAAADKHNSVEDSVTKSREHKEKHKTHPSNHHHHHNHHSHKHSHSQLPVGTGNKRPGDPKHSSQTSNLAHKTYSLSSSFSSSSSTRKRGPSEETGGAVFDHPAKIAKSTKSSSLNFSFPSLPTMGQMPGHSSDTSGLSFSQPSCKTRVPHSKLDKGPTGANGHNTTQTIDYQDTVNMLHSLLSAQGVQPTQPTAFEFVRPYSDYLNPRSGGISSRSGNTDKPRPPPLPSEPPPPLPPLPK

Compound	sensitivity of MZ1-R cells relative to JQ1-R cells or parental cells [1]	CDK9 protein levels [2]	growth inhibition [3]	apoptosis [5]	BET protein levels [6]	BET protein levels [7]	cell viability of ARV-R cells compared with parental cells [8]	cell viability / growth of MZ1-R cells compared with parental cells [9]	sensitivity of Thal-R cells relative to parental cells [10]	BRD2, BRD3 or BRD4 RNA levels [11]	phosphorylation of P70S6K (T359) ([13]; 1 μM)	spheroid growth in 3D assays [17]	cell viability / growth inhibition [18]	also measured
CCc1cc(Nc2nccc(-c3c(-c4ccc(OC)c(C(=O)Nc5c(F)cccc5F)c4)nc4ccccn34)n2)c(OC)cc1N1CCC(N2CCN(S(C)(=O)=O)CC2)CC1 [GSK1904529A]	more sensitive	downregulation of CDK9	minimal growth inhibition	induction of apoptosis	significantly reduced	reduced BRD2 and BRD4 proteins	reduced cell viability more than in parental cells	significantly blocked cell growth to a greater extent than parental cells	more sensitive	unaffected	reduced MTOR-mediated phosphorylation of P70S6K (T359)			colony formation [4]: inhibited colony formation to a greater extent than parental cells; MYC protein levels ([6]; escalating doses, 48 hours): dose dependent reduction in MYC protein levels; BET protein levels [12]: did not reduce BET protein levels; kinase MIB-binding ([13]; OVCAR8 MZ1-R cells, 1 μM, 48 hours, MIB-MS): reduced MIB-binding of drug targets INSR and IGF1R; kinase activity by phospho-blot ([13]; OVCAR8 MZ1-R cells, escalating doses, 48 hours): Inhibition of INSR/IGF1R, MTOR, P70S6K, BRAF and ERK activity; BET protein levels [14]: did not reduce BET protein levels
CC(C)(C)c1cnc(CSc2cnc(NC(=O)C3CCN(CC(=O)NCCOCCOCCOCCNc4cccc5c4C(=O)N(C4CCC(=O)NC4=O)C5=O)CC3)s2)o1 (stereo not drawn) [Thal SNS 032]		failed to degrade CDK9												CDK9 protein levels [15]: reduction of CDK9 protein levels
CO[C@H]1C[C@@H]2CC[C@@H](C)[C@@](O)(O2)C(=O)C(=O)N2CCCC[C@H]2C(=O)O[C@H]([C@H](C)C[C@@H]2CC[C@@H](OCCO)[C@H](OC)C2)CC(=O)[C@H](C)/C=C(\C)[C@@H](O)[C@@H](OC)C(=O)[C@H](C)C[C@H](C)/C=C/C=C/C=C/1C [RAD001]	more sensitive	downregulation of CDK9	minimal growth inhibition		reduced BRD2 and BRD4 levels	reduced BRD2 and BRD4 proteins	reduced cell viability more than in parental cells	significantly blocked cell growth to a greater extent than parental cells	more sensitive	unaffected	reduced MTOR-mediated phosphorylation of P70S6K (T359)	ineffective	less effective	BET protein levels [16]: reduced BRD2 and BRD4 levels; phosphorylated RNA pol II (S2) ([13]; OVCAR8 MZ1-R cells, 48 hour RAD001 treatment, with or without bortezomib): inhibition of phosphorylated RNA pol II (S2)
Cc1sc2c(c1C)C(c1ccc(Cl)cc1)=N[C@@H](CC(=O)NCCCCCCCCNC(=O)COc1cccc3c1C(=O)N(C1CCC(=O)NC1=O)C3=O)c1nnc(C)n1-2 (stereo partly drawn) [dBET6]				promoted apoptosis			cross resistance					ineffective	less effective	cell viability of MZ1-R cells compared with parental cells ([1]; OVCAR8 MZ1-R): inhibited cell viability; GI50 [19]: > 1000 nM
